Source: patent US20100292229A1, “TRYPHOSTIN-ANALOGS FOR THE TREATMENT OF CELL PROLIFERATIVE DISEASES” (The Board of Regents of the University of Texas System, priority 2006, published 2010)
Like-named read-outs stand apart in the source and are kept apart here.

Tested on: MM-1 cells
Assay: MTT assay of cell growth and survival, MM-1 cells
Assay type: cell-based
Experimental: All compounds are tested for purity (HPLC, NMR) and the calculated molecular weight is used to make up a 10 mM stock solution of each compound (in 100% dimethylsulfoxide or 50% dimethylsulfoxide:50% polyethylene glycol 300). Compounds are diluted into cell culture media consisting of RPMI 1640 with 10% fetal bovine serum to a final starting concentration of 10 μM. [Highest final DMSO content=0.1%.]. Tumor cells (20,000 for non-adherent cells; 5,000 for adherent cells) are plated into individual wells of a 96-well culture plate in 0.1 ml of culture media. Diluted compounds are added to individual wells containing pre-plated cells (final volume 0.2 ml) and incubated at 37° C. for 24 to 72 h. Wells receiving vehicle alone acted as a control.
MTT (viability) assay. MTT reagent (20 μl of 5 mg/ml stock solution, Sigma) is added to the cells and the plates are incubated at 37° C. for another 2 h. Cells are lysed by adding 100 μl of lysis buffer (20% SDS in 50% N,N-dimethylformamide (Sigma) adjusted to pH 4.7 by 80% acetic acid and 1 M HCl such that the final concentration of acetic acid is 2.5% and HCl is 2.5%) into each well and incubated for 6 h. The OD570 of each sample is determined by using a SPECTRA MAX M2 plate reader (Molecular Devices). The OD in control and treated wells is used as an estimate of the effect of compounds on cell growth and survival.
Cell lines. […] A375 melanoma cells were grown and maintained in the same media. Ba/F3 parental cells were grown in RPMI 1640 containing 10% heat inactivated fetal bovine serum and 2 mM glutamine supplemented with IL-3 (1 ng/ml) while Ba/F3 cells stably expressing Bcr/Abl or the T315I mutant of Bcr/Abl were grown in RPMI 1640 containing 10% heat inactivated fetal bovine serum and 2 mM glutamine in the absence of IL-3. Normal human dermal fibroblasts (NHDF) were obtained from Cambrex (Walkersville, Md.) and grown in specially formulated media (obtained through Cambrex) with 20% fetal calf serum.
IC50 determinations. The anti-tumor activity of certain compounds of the present invention against MM-1 cell lines was investigated and the IC50 values calculated (FIGS. 33A-F). In a typical experiment, MM-1 cell lines were incubated with a range of compound concentrations for 72 h to determine the concentration required to inhibit cell growth or induce apoptosis by 50% (IC50). MTT assays as described above were used to conduct this analysis.

SMILES: CCC[C@H](NC(=O)/C(C#N)=C/c1cccc(Br)n1)c1ccccc1 [Degrasyn]
- IC50 (FIG. 21, anti-tumor activity, read-out: IC50 for MM-1 cells): 1400 nM
- IC50 (FIG. 31, 72 h, MTT, average of 4 determinations, read-out: IC50, MM-1 cells): ~1200 nM
